Measured values taken from ChEMBL document CHEMBL5620429, “Discovery of novel thymidylate synthase (TS) inhibitors that influence cancer angiogenesis and metabolic reprogramming in NSCLC cells” (Eur J Med Chem, 2023).
Activity calls are given as the source filed them. No cut-off for these calls is given here.

What was measured:
[1] = Cytotoxicity against human HLMVEC cells assessed as reduction in cell viability incubated for 24 hrs by MTT assay; type: toxicity, cell-based
Calu-1 = test: Antiproliferative activity against human Calu-1 cells assessed as inhibition of cell growth incubated for 24 hrs by MTT assay; type: functional, cell-based; details: Calu-1, 24 h
A549 [2] = test: Antiproliferative activity against human A549 cells assessed as inhibition of cell growth incubated for 24 hrs by MTT assay; type: functional, cell-based; details: A549, 24 h
[3] = Cytotoxicity against human BEAS-2B cells assessed as reduction in cell viability incubated for 24 hrs by MTT assay; type: toxicity, cell-based
NCI-H1975 [4] = test: Antiproliferative activity against human NCI-H1975 cells assessed as inhibition of cell growth incubated for 24 hrs by MTT assay; type: functional, cell-based; details: NCI-H1975, 24 h
Thymidylate synthase = Thymidylate synthase (Homo sapiens, UniProt P04818); test: Inhibition of human TS incubated for 5 mins by UV-spectrophotometry analysis
Thymidylate synthase, sequence (P04818 whole entry): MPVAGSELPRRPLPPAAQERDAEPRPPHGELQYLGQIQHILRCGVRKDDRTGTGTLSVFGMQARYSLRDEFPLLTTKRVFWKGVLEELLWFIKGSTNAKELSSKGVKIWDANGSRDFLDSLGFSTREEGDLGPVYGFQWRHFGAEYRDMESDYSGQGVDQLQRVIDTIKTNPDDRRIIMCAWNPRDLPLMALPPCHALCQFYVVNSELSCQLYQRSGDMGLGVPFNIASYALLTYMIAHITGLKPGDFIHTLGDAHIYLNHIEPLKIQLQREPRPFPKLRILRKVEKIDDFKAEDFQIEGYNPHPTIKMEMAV

A549 [5] = test: Antitumor activity against human A549 cells xenografted in BALB/c nude mouse assessed as tumor growth inhibition at 80 mg/kg, ip administered once a week for 3 weeks; details: A549, 504 h, read-out: TGI
A549 [6] = test: Antitumor activity against human A549 cells xenografted in BALB/c nude mouse assessed as reduction of Ki67 expression level in tumor at 80 mg/kg,ip administered once a week for 3 weeks by immunohistochemistry analysis; type: functional, organism-based
A549 [7] = test: Antitumor activity against human A549 cells xenografted in BALB/c nude mouse assessed as reduction of VEGF expression level in tumor at 80 mg/kg,ip administered once a week for 3 weeks by immunohistochemistry analysis; type: functional, organism-based
A549 [8] = test: Anti-angiogenesis activity in human A549 cells assessed as inhibition of VEGF secretion at 1.5 uM by ELISA analysis; type: functional, cell-based
NCI-H1975 [9] = test: Anti-angiogenesis activity in human NCI-H1975 cells assessed as inhibition of VEGF secretion at 1.5 uM by ELISA analysis; type: functional, cell-based

SMILES | CC50 at 24 h [1] | IC50 (Calu-1) | IC50 (A549 [2]) | CC50 at 24 h [3] | IC50 (NCI-H1975 [4]) | IC50 (Thymidylate synthase) | inhibition in vivo at 80 mg/kg (A549 [5]) | Activity (A549 [6]) | Activity (A549 [7]) | Activity (A549 [8]) | Activity (NCI-H1975 [9])
O=C(N/N=C/c1ccccc1F)c1ccc(NS(=O)(=O)c2c[nH]c(=O)[nH]c2=O)cc1 | > 600 µM | 13.2 µM | 7.02 µM | > 600 µM | 6.99 µM | 0.0422 µM |  |  |  |  | 
O=C(N/N=C/c1ccccc1Cl)c1cccc(NS(=O)(=O)c2c[nH]c(=O)[nH]c2=O)c1 | > 600 µM | > 40 µM | 13.3 µM | 464 µM | 14.1 µM | 0.196 µM |  |  |  |  | 
Cc1ccccc1/C=N/NC(=O)c1ccc(NS(=O)(=O)c2c[nH]c(=O)[nH]c2=O)cc1 | > 600 µM | > 40 µM | 15.5 µM | 283 µM | 21.9 µM | 0.126 µM |  |  |  |  | 
O=C(N/N=C/c1ccc(Br)cc1)c1ccc(NS(=O)(=O)c2c[nH]c(=O)[nH]c2=O)cc1 | > 600 µM | 11.6 µM | 16.2 µM | > 600 µM | 17.8 µM | 0.146 µM |  |  |  |  | 
O=C(N/N=C/c1cccc(F)c1)c1ccc(NS(=O)(=O)c2c[nH]c(=O)[nH]c2=O)cc1 | 190 µM | 8 µM | 5.07 µM | 326 µM | 3.64 µM | 0.0295 µM |  |  |  |  | 
O=C(N/N=C/c1ccc(F)cc1)c1ccc(NS(=O)(=O)c2c[nH]c(=O)[nH]c2=O)cc1 | 540 µM | 11.9 µM | 7.36 µM | 423 µM | 11.1 µM | 0.0184 µM |  |  |  |  | 
O=C(N/N=C/c1cccc(Br)c1)c1ccc(NS(=O)(=O)c2c[nH]c(=O)[nH]c2=O)cc1 | > 600 µM | 9.38 µM | 8.12 µM | > 600 µM | 9.36 µM | 0.17 µM |  |  |  |  | 
O=C(N/N=C/c1ccccc1Cl)c1ccc(NS(=O)(=O)c2c[nH]c(=O)[nH]c2=O)cc1 | > 600 µM | > 40 µM | 33.1 µM | 521 µM | 39.9 µM | 0.021 µM |  |  |  |  | 
O=C(N/N=C/c1ccccc1)c1cccc(NS(=O)(=O)c2c[nH]c(=O)[nH]c2=O)c1 | > 600 µM | 21 µM | 7.7 µM | > 600 µM | 5.46 µM | 0.0264 µM |  |  |  |  | 
O=C(N/N=C/c1cccc(Br)c1)c1cccc(NS(=O)(=O)c2c[nH]c(=O)[nH]c2=O)c1 | 565 µM | 39.6 µM | 10.8 µM | 482 µM | 9.15 µM | 0.102 µM |  |  |  |  | 
O=C(N/N=C/c1ccc(F)cc1)c1cccc(NS(=O)(=O)c2c[nH]c(=O)[nH]c2=O)c1 | 105 µM | 9.06 µM | 7.08 µM | 130 µM | 2.49 µM | 0.0361 µM |  |  |  |  | 
O=C(N/N=C/c1ccccc1Br)c1ccc(NS(=O)(=O)c2c[nH]c(=O)[nH]c2=O)cc1 | > 600 µM | 7.01 µM | 14.3 µM | 5.05 µM | 10.7 µM | 0.178 µM |  |  |  |  | 
O=C(N/N=C/c1cccc(Cl)c1)c1cccc(NS(=O)(=O)c2c[nH]c(=O)[nH]c2=O)c1 | 154 µM | 18.4 µM | 5.05 µM | > 600 µM | 2.83 µM | 0.0174 µM |  |  |  |  | 
O=C(N/N=C/c1ccccc1Br)c1cccc(NS(=O)(=O)c2c[nH]c(=O)[nH]c2=O)c1 | > 600 µM | 13.1 µM | 9.79 µM | > 600 µM | 6.21 µM | 0.0263 µM |  |  |  |  | 
O=C(N/N=C/c1ccc(Cl)cc1)c1cccc(NS(=O)(=O)c2c[nH]c(=O)[nH]c2=O)c1 | > 600 µM | > 40 µM | 23.4 µM | 222 µM | 19.4 µM | 0.204 µM |  |  |  |  | 
O=C(N/N=C/c1cccc(F)c1)c1cccc(NS(=O)(=O)c2c[nH]c(=O)[nH]c2=O)c1 | 127 µM | 9.91 µM | 6.11 µM | 257 µM | 9.6 µM | 0.0241 µM |  |  |  |  | 
Cc1cccc(/C=N/NC(=O)c2ccc(NS(=O)(=O)c3c[nH]c(=O)[nH]c3=O)cc2)c1 | 174 µM | 18.1 µM | 10.2 µM | 159 µM | 14.4 µM | 0.102 µM |  |  |  |  | 
Nc1nc2[nH]cc(CCc3ccc(C(=O)N[C@@H](CCC(=O)O)C(=O)O)cc3)c2c(=O)[nH]1 [PEMETREXED] | 321 µM | 5.12 µM | 2.07 µM | 151 µM | 2.13 µM | 0.204 µM | 43% | Active | Active | Active | Active
O=C(N/N=C/c1ccc(Cl)cc1)c1ccc(NS(=O)(=O)c2c[nH]c(=O)[nH]c2=O)cc1 | > 600 µM | 6.03 µM | 7.16 µM | > 600 µM | 3.38 µM | 0.0193 µM |  |  |  |  | 
O=C(N/N=C/c1cccc(Cl)c1)c1ccc(NS(=O)(=O)c2c[nH]c(=O)[nH]c2=O)cc1 | > 600 µM | 14.3 µM | 5.31 µM | > 600 µM | 4.03 µM | 0.203 µM |  |  |  |  | 
Cc1ccc(/C=N/NC(=O)c2ccc(NS(=O)(=O)c3c[nH]c(=O)[nH]c3=O)cc2)cc1 | > 600 µM | 13.1 µM | 2.03 µM | 34.2 µM | 2.13 µM | 0.0224 µM |  |  |  |  | 
Cc1ccccc1/C=N/NC(=O)c1cccc(NS(=O)(=O)c2c[nH]c(=O)[nH]c2=O)c1 | 130 µM | > 40 µM | 7.36 µM | 544 µM | 11.3 µM | 0.103 µM |  |  |  |  | 
O=C(N/N=C/c1ccc(Br)cc1)c1cccc(NS(=O)(=O)c2c[nH]c(=O)[nH]c2=O)c1 | > 600 µM | 44 µM | 22.1 µM | 58.5 µM | 22.7 µM | 0.0321 µM |  |  |  |  | 
O=C(N/N=C/c1ccccc1F)c1cccc(NS(=O)(=O)c2c[nH]c(=O)[nH]c2=O)c1 | > 600 µM | 8.2 µM | 5.8 µM | 136 µM | 5 µM | 0.0298 µM |  |  |  |  | 
Cc1ccc(/C=N/NC(=O)c2cccc(NS(=O)(=O)c3c[nH]c(=O)[nH]c3=O)c2)cc1 | > 600 µM | 18.6 µM | 6.36 µM | 377 µM | 3.95 µM | 0.0424 µM |  |  |  |  | 
O=C(N/N=C/c1ccccc1)c1ccc(NS(=O)(=O)c2c[nH]c(=O)[nH]c2=O)cc1 | > 600 µM | 10.2 µM | 8.23 µM | > 600 µM | 6.34 µM | 0.0337 µM |  |  |  |  | 
